Data taken from article PMC11345766, “Computational Design of Pore-Forming Peptides with Potent Antimicrobial and Anticancer Activities” (Journal of Medicinal Chemistry, 2024).
Ends that are not written are not given here.

Key:
[1] = single intraperitoneal dose at 10 times the MIC
Description: Neutropenic mice were infected intramuscularly (in the right thigh) with 10^6 cells per mL of Gram-negative A. baumannii (ATCC 19606).
(a) Schematic of the deep thigh infection model in which bacteria are injected intramuscularly at day 4 and peptides are administered intraperitoneally also at day 4 to assess their anti-infective activity. Mice were euthanized 4 days postinfection (day 8). Each group consisted of six mice (n = 6), and the bacterial loads used to infect the mice derived from three different inocula. […] Polymyxin B (0.006 mg/kg) and levofloxacin (0.014 mg/kg) were used as the reference antibiotics. Statistical significance was done using one-way ANOVA followed by Dunnett’s test. Violin plots represent the median, upper quartile, and lower quartile. (c) Mouse weight was monitored to exclude possible toxic effects of the peptides.
Six-week-old female CD-1 mice (obtained from Charles River; stock number 18679700-022) underwent neutropenia induction via two intraperitoneal doses of cyclophosphamide (150 mg kg^–^1) administered with a 72 h interval. One day later, the mice received an intramuscular injection containing A. baumannii ATCC 19606 (10^6 CFU mL^–1) in the right thigh. Bacteria were cultured in LB broth, washed twice with PBS (pH 7.4), and resuspended to the desired concentration. […] Polymyxin B (0.006 mg/kg) and levofloxacin (0.014 mg/kg) were used as the reference antibiotics. Prior to each injection, mice were anesthetized with isoflurane and their respiratory rate and pedal reflexes were monitored. Subsequently, we observed the infection establishment and euthanized the mice. The infected area was excised 4 days postinfection (i.e., 8 days after the beginning of the experiment), homogenized using a bead beater for 20 min (25 Hz), and 10-fold serially diluted for CFU quantification on MacConkey agar plates. Each experimental group comprised three mice. All experiments were conducted blindly, and no animals were excluded from the analysis. Statistical significance was assessed using one-way ANOVA followed by Dunnett’s test on log10-transformed data to mitigate outlier effects; p values are reported for each group, with all groups compared to the untreated control group.

[2] = tested on: S. aureus ATCC 29213 (Clinical); conditions: S. aureus / ATCC 29213 / Clinical / Prot. c; Prot. c
[3] = tested on: K. pneumoniae ATCC 700603 (ESBL); conditions: K. pneumoniae / ATCC 700603 / ESBL / Prot. a; Prot. a
[4] = tested on: K. pneumoniae E1267 (GEN, AMI); conditions: K. pneumoniae / E1267 / GEN, AMI / Prot. c; Prot. c
[5] = tested on: P. aeruginosa PA14 (WT); conditions: P. aeruginosa / PA14 / WT / Prot. d; Prot. d
[6] = tested on: E. faecalis JH2-2 (WT); conditions: E. faecalis / JH2-2 / WT / Prot. b; Prot. b
[7] = tested on: P. aeruginosa NCTC 13437 (ESBL); conditions: P. aeruginosa / NCTC 13437 / ESBL / Prot. a; Prot. a
[8] = tested on: E. faecium BM4147 (AMX, VAN); conditions: E. faecium / BM4147 / AMX, VAN / Prot. b; Prot. b
[9] = tested on: E. faecium ATCC 19434T (WT); conditions: E. faecium / ATCC 19434T / WT / Prot. b; Prot. b
[10] = tested on: E. faecalis UCN41 (VAN); conditions: E. faecalis / UCN41 / VAN / Prot. b; Prot. b
[11] = tested on: P. aeruginosa K12 (AMI, IMI, MER, CTZ, PIT); conditions: P. aeruginosa / K12 / AMI, IMI, MER, CTZ, PIT / Prot. c; Prot. c
[12] = tested on: E. faecalis ATCC 700802 (VAN); conditions: E. faecalis / ATCC 700802 / VAN / Prot. d; Prot. d
[13] = tested on: S. aureus ATCC BAA-1556 (MET); conditions: S. aureus / ATCC BAA-1556 / MET / Prot. d; Prot. d
[14] = tested on: S. aureus NRS1 (MRSA or VISA); conditions: S. aureus / NRS1 / MRSA or VISA / Prot. a; Prot. a
[15] = tested on: P. aeruginosa K11 (IMI, MER, CTZ, PIT); conditions: P. aeruginosa / K11 / IMI, MER, CTZ, PIT / Prot. c; Prot. c
[16] = tested on: E. faecium ATCC 700221 (VAN, TEI); conditions: E. faecium / ATCC 700221 / VAN, TEI / Prot. d; Prot. d
[17] = tested on: P. aeruginosa PA01 (WT); conditions: P. aeruginosa / PA01 / WT / Prot. d; Prot. d
[18] = tested on: E. faecium Z906 (VAN, TEI, LNZ); conditions: E. faecium / Z906 / VAN, TEI, LNZ / Prot. c; Prot. c
[19] = tested on: E. coli (TOP10); assay: Broth microdilution antimicrobial susceptibility assay; type: cell-based, Escherichia coli
How it was run: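 Bacteria were grown on MHA for 24 h, subcultured in MHB for 6 h at 37 °C and diluted to 10^6 CFU/mL. Compounds were serially diluted from 50 to 0.1 μM, inoculated and incubated for 24 h at 37 °C. MIC was the lowest concentration with no visible turbidity.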

[20] = tested on: murine macrophages RAW 264.7; conditions: 24 h
Description: Cytotoxicity against human immortalized keratinocytes HaCaT, human alveolar basal epithelial A549 (derived from adenocarcinoma), and murine macrophages RAW 264.7 was tested using MTT [3-(4,5-dimethylthiazol-2-yl)-2,5-diphenyltetrazolium bromide] assay. Cells were cultured in Dulbecco’s modified Eagle’s medium (DMEM) containing 4 mM glutamine for HaCaT, or 2 mM glutamine for A549 and RAW 264.7 cells, supplemented with 10% heat-inactivated fetal bovine serum (FBS) and antibiotics (0.1 mg/mL penicillin and streptomycin). Nonessential amino acids (NEAA) and sodium pyruvate (1 mM) were added for macrophages. Cell lines were grown in 25 and 75 cm^2 flasks at 37 °C in a humidified atmosphere with 5% CO2. Cells were suspended in DMEM, containing glutamine, NEAA, and sodium pyruvate (as described above), supplemented with 2% FBS, plated in 96-well plates at 4 × 10^4 cells/well, and incubated at 37 °C in a 5% CO2 atmosphere. After overnight incubation, the medium was replaced with fresh DMEM supplemented with peptides at different concentrations: 2, 4, 8, 16, 32, 64, and 128 μM. Negative controls were cells without peptides. After 24 h of peptide treatment at 37 °C in a 5% CO2 atmosphere, medium was replaced with Hank’s buffer (136 mM NaCl, 0.34 mM Na2HPO4, 0.44 mM KH2PO4, 5.4 mM KCl, 4.1 mM NaHCO3, supplemented with 5.5 mM D-glucose) containing 0.5 mg/mL MTT. Mitochondrial dehydrogenases converted soluble yellow dye MTT to insoluble purple formazan. After 4 h of incubation, acidified isopropanol was added to dissolve formazan crystals and measured for OD570 using Tecan microplate reader Infinite M200 (Salzburg, Austria).

Substance	Change in mouse weight [1]	MIC [2] [µM]	MIC [3] [µM]	MIC [4] [µM]	MIC [5] [µM]	MIC [6] [µM]	MIC [7] [µM]	MIC [8] [µM]	MIC [9] [µM]	MIC [10] [µM]	MIC [11] [µM]	MIC [12] [µM]	MIC [13] [µM]	MIC [14] [µM]	MIC [15] [µM]	MIC [16] [µM]	MIC [17] [µM]	MIC [18] [µM]	IC50 [20] [µM]	also measured
KKKKLKKILKKLFQFINQLDNQLQDIKKKK-NH2 [LP18]	no significant change in mouse weight	> 32	4	> 32	3.1	> 32	11	4	15	> 32	> 32	> 60	> 60	> 16	16	> 60	3.1	16	25	pH dependence of antimicrobial activity ([19]; pH 8 and 6): independent of pH
KKKKLKKILKKLFQFINQLDNQLQDIKQNK-NH2 [LP1]	no significant change in mouse weight	> 32	4	> 32	3.1	> 32	> 16	16	> 32	> 32	> 32	> 60	> 60	> 16	> 32	12.5	3.1	> 32	44	–
H-HHHHLKKILKKLFQFINQLDNQLQDIHHHH-OH [LP40]	–	–	–	–	–	–	–	–	–	–	–	–	–	–	–	–	–	–	–	MIC ([19]; 24 h, MHB): > 50 µM; MIC against E. coli (TOP10) ([19]; TOP10, 24 h, pH 6): 0.4 µM
